The text below walks through data of patent publication US20260070902A1, “SULFONYL DERIVATIVES AS CCR6 INHIBITORS” (Hoffmann-La Roche Inc., priority 2022, published 2026).

Experiment [1] concerns the target T1, human CCR6 (Homo sapiens, UniProt P51684).
T1 sequence (P51684 1-374): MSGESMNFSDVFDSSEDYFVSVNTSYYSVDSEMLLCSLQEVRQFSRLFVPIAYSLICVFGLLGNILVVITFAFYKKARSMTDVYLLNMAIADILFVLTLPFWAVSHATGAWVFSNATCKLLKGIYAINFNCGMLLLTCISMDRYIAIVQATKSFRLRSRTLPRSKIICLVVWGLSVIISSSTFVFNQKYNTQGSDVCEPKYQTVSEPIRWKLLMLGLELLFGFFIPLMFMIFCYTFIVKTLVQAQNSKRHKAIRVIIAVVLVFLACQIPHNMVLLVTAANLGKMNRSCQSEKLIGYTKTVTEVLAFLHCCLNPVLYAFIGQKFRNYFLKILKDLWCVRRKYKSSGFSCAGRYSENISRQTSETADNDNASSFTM
Put plainly: Human CCR6-CRE reporter assay. The experiment is classed as cell-based. Details: The second construct contained the open reading frame of human CCR6 in the pUNO1 backbone; host or cells: 293FT cells. The note with it: relative -Log IC50; 293FT cells transfected with human CCR6 and CRE-luciferase reporter; 6 μM Forskolin, 6 nM CCL20; 5 h. The protocol:
Human CCR6-CRE Reporter Assay
293FT cells were transfected with 2 constructs using TransIT-293 (Mirus). The first construct (pGL4.29, Promega) expressed the luciferase reporter gene luc2P in response to the binding of cAMP-induced CREB to the CREelement in its promoter. The second construct contained the open reading frame of human CCR6 in the pUNO1 backbone under the control of an enhanced CMV promoter (InVivoGen). 48 h after transfection, cells were harvested and diluted to 750,000 cells/ml in culture medium (DMEM, 10% FBS, 1× pen/strep (Gibco 15140)). Compounds were 2.5-fold serially diluted in DMSO. Further dilutions were made in assay medium (DMEM, 10% FBS, 1× pen/strep, 6 μM Forskolin, 6 nM CCL20). 4 μl of the compound solution was added to a white MW384 plate, followed by 20 μl of the cell suspension. Final DMSO concentration in the assay was 0.1%. The MW384 plate was placed in an incubator at 37° C., 5% CO2 for 5 h. Luciferase activity was determined by addition of 24 μl of a 2.5× diluted BriteLite luciferase solution (Perkin Elmer), followed by luminescence measurement using a VICTOR Plate reader (Perkin Elmer). […] The relative −Log IC50 was determined with GraphPad Prism 9 using a four-parameter dose-response model.

The target of experiment [2] is T1, human CCR6. The experiment in a line: CHO-K1 CCR6 chemotaxis assay towards CCL20. Type of experiment: cell-based. The note with it: relative -Log IC50; CHO-K1 cells overexpressing human CCR6; migration towards 100 ng/ml CCL20; 4 h. The source says: CHO-K1 CCR6 Chemotaxis Assay Towards CCL20
Cells overexpressing human CCR6 were used in the chemotaxis assay (DiscoverX, cAMP Hunter™ CHO-K1 CCR6 Gi Cell Line). Growth medium of these cells consisted of DMEM/F12, non-essential Amino acids (1×NEAA, Gibco 11140050), 10% FBS and 1× pen/strep (Gibco 15140). For the chemotaxis assay, Corning Transwell plates were used with a pore size of 8 m (Corning 351164). Cells were harvested using trypsin and diluted to 4*10^6 cells/ml in chemotaxis medium (DMEM, 0.25% BSA, pen/strep). Compounds were four-fold serially diluted in DMSO. Further dilutions were made in chemotaxis medium. Cells were incubated with test compounds for 30 min at 37° C. prior to initiation of the assay (2*10^6 cells/ml). Final DMSO concentration in the assay was 0.2%. Wells of the Transwell plates were filled with 200 μl chemotaxis medium containing 100 ng/ml CCL20 (R&D systems 360-MP). 50 μl of the cell/compound suspension was added to the inserts of the Transwell plates (100,000 cells/insert). The Transwell plates were placed in an incubator at 37° C., 5% CO2 for 4 h. After 4 h, the number of migrated cells was quantified using CellTiter Glo (Promega). Percentage inhibition values were calculated based on the low and high signal obtained with 0.2% DMSO in chemotaxis medium without and with CCL20, respectively. The relative −Log IC50 was determined with GraphPad Prism 9 using a four-parameter dose-response model.

With `CC(C)c1cnc2ccc(-c3ccc(S(=N)(=O)[C@H]4CC[C@H](Nc5ccc(S(F)(F)(F)(F)F)cc5)CC4)cc3)cn12` (relative stereo) [Example 118, {4-[3-(propan-2-yl)imidazo[1,2-a]pyridin-6-yl]phenyl}[trans-4-{[4-(pentafluoro-λ^6-sulfanyl)phenyl]Amino}cyclohexyl](imino)-λ^6-sulfanone], the IC50 against human CCR6 [1] was 79.4 nM; at human CCR6 [2], 398 nM.

In the case of `N#Cc1c[nH]c2ccc(-c3ccc(S(=N)(=O)[C@H]4CC[C@H](Nc5ccc(S(F)(F)(F)(F)F)cc5)CC4)cc3)cc12` (single isomer, unassigned; (+)) [Example 126, (+)-5-(4-{[trans-4-{[4-(pentafluoro-λ^6-sulfanyl)phenyl]Amino}cyclohexyl]sulfonimidoyl}phenyl)-1H-indole-3-carbonitrile], the IC50 at human CCR6 [1] and against human CCR6 [2] was 126 nM each time. On to `N=S(=O)(c1ccc(-c2ccc3nccn3c2)cc1)[C@H]1CC[C@H](Nc2ccc(S(F)(F)(F)(F)F)cc2)CC1` (single isomer, unassigned; (+)) [Example 128, (+)-(4-{imidazo[1,2-a]pyridin-6-yl}phenyl)[trans-4-{[4-(pentafluoro-λ^6-sulfanyl)phenyl]Amino}cyclohexyl](imino)-λ^6-sulfanone], for which the IC50 is 126 nM against human CCR6 [1] and 251 nM against human CCR6 [2]. For `N#Cc1c[nH]c2ccc(-c3ccc(S(=N)(=O)[C@H]4CC[C@H](Nc5ccc(S(F)(F)(F)(F)F)cc5)CC4)cc3)cc12` (single isomer, unassigned; (-)) [Example 127, (−)-5-(4-{[trans-4-{[4-(pentafluoro-λ^6-sulfanyl)phenyl]Amino}cyclohexyl]sulfonimidoyl}phenyl)-1H-indole-3-carbonitrile], the IC50 at human CCR6 [1] was 316 nM; at human CCR6 [2] it was 251 nM. On to `N=S(=O)(c1ccc(-c2ccc3nccn3c2)cc1)[C@H]1CC[C@H](Nc2ccc(S(F)(F)(F)(F)F)cc2)CC1` (single isomer, unassigned; (-)) [Example 129, (−)-(4-{imidazo[1,2-a]pyridin-6-yl}phenyl)[trans-4-{[4-(pentafluoro-λ^6-sulfanyl)phenyl]Amino}cyclohexyl](imino)-λ^6-sulfanone], for which the IC50 against human CCR6 [1] is 200 nM; against human CCR6 [2], 316 nM. Regarding `N=S(=O)(c1ccc(-c2ccc3n[nH]c(=O)n3c2)cc1)[C@H]1CC[C@H](Nc2ccc(S(F)(F)(F)(F)F)cc2)CC1` (stereo partly drawn) [Example 119, 6-(4-{[trans-4-{[4-(pentafluoro-λ^6-sulfanyl)phenyl]Amino}cyclohexyl]sulfonimidoyl}phenyl)-2H,3H-[1,2,4]triazolo[4,3-a]pyridin-3-one], at human CCR6 [1], the half-inhibitory concentration (IC50) was 316 nM. The same measure, in the same setting: under `N#Cc1c[nH]c2ccc(-c3ccc(S(=N)(=O)N4CCC(Nc5ccc(S(F)(F)(F)(F)F)cc5)CC4)cc3)cc12` (centres unmarked) [Example 120, 5-{4-[(4-{[4-(pentafluoro-λ^6-sulfanyl)phenyl]Amino}piperidin-1-yl)sulfonimidoyl]phenyl}-1H-indole-3-carbonitrile] stands 63.1 nM; under `N#Cc1ccc(-c2ccc(S(=N)(=O)N3CCC(Nc4ccc(S(F)(F)(F)(F)F)cc4)CC3)cc2)cc1` (centres unmarked) [Example 122, 4′-[(4-{[4-(pentafluoro-λ^6-sulfanyl)phenyl]Amino}piperidin-1-yl)sulfonimidoyl]-[1,1′-biphenyl]-4-carbonitrile], 398 nM; under `CC(C)NC(=O)c1cccc(-c2ccc(S(=O)(=O)[C@H]3CC[C@H](Nc4ccc(S(F)(F)(F)(F)F)cc4)CC3)cc2)c1` [Example 141, N-(propan-2-yl)-4′-{[trans-4-{[4-(pentafluoro-λ^6-sulfanyl)phenyl]amino}cyclohexyl]sulfonyl}-[1,1′-biphenyl]-3-carboxamide], 79.4 nM. Still for that read-out and setting: under `CN(C)c1cnc2ccc(-c3ccc(S(=O)(=O)[C@H]4CC[C@H](Nc5ccc(S(F)(F)(F)(F)F)cc5)CC4)cc3)cn12` [Example 143, N,N-dimethyl-6-(4-{[trans-4-{[4-(pentafluoro-λ^6-sulfanyl)phenyl]amino}cyclohexyl]sulfonyl}phenyl)imidazo[1,2-a]pyridin-3-amine] stands 100 nM.

On to `O=C(NC1CC1)c1cccc(-c2ccc(S(=O)(=O)[C@H]3CC[C@H](Nc4ccc(S(F)(F)(F)(F)F)cc4)CC3)cc2)c1` [Example 144, N-cyclopropyl-4′-{[trans-4-{[4-(pentafluoro-λ^6-sulfanyl)phenyl]amino}cyclohexyl]sulfonyl}-[1,1′-biphenyl]-3-carboxamide], for which, on human CCR6 [1], half-maximal inhibition (IC50) was put at 50.1 nM. Molecule `O=S(=O)(c1ccc(-c2ncc3[nH]ccc3n2)cc1)[C@H]1CC[C@H](Nc2ccc(S(F)(F)(F)(F)F)cc2)CC1` [Example 145, 4-(pentafluoro-λ^6-sulfanyl)-N-[trans-4-(4-{5H-pyrrolo[3,2-d]pyrimidin-2-yl}benzenesulfonyl)cyclohexyl]aniline] gave an IC50 at human CCR6 [1] of 1580 nM. Same read-out and setting: next, `O=S(=O)(c1ccc(-c2cc3cc[nH]c3cn2)cc1)[C@H]1CC[C@H](Nc2ccc(S(F)(F)(F)(F)F)cc2)CC1` [Example 146, 4-(pentafluoro-λ^6-sulfanyl)-N-[trans-4-(4-{1H-pyrrolo[2,3-c]pyridin-5-yl}benzenesulfonyl)cyclohexyl]aniline]: 794 nM; `Cc1cc(-c2ccc(S(=O)(=O)[C@H]3CC[C@H](Nc4ccc(S(F)(F)(F)(F)F)cc4)CC3)cc2)cn2ccnc12` [Example 149, 4-(pentafluoro-λ^6-sulfanyl)-N-[trans-4-(4-{8-methylimidazo[1,2-a]pyridin-6-yl}benzenesulfonyl)cyclohexyl]aniline]: 63.1 nM; `O=S(=O)(c1ccc(-c2ccc3nnc([C@@H]4CCNC4)n3c2)cc1)N1CCC(Nc2ccc(S(F)(F)(F)(F)F)cc2)CC1` [Example 165, N-[4-(pentafluoro-λ^6-sulfanyl)phenyl]-1-(4-{3-[(3R)-pyrrolidin-3-yl]-[1,2,4]triazolo[4,3-a]pyridin-6-yl}benzenesulfonyl)piperidin-4-amine]: 794 nM. Same read-out and setting: under `O=S(=O)(c1ccc(-c2ccc3nnc([C@H]4CCNC4)n3c2)cc1)N1CCC(Nc2ccc(S(F)(F)(F)(F)F)cc2)CC1` [Example 166, N-[4-(pentafluoro-λ^6-sulfanyl)phenyl]-1-(4-{3-[(3S)-pyrrolidin-3-yl]-[1,2,4]triazolo[4,3-a]pyridin-6-yl}benzenesulfonyl)piperidin-4-amine] stands 794 nM. Still for that read-out and setting: under `CC(C)c1nnc2ccc(-c3ccc(S(=N)(=O)[C@H]4CC[C@H](Nc5ccc(S(F)(F)(F)(F)F)cn5)CC4)cc3)cn12` (stereo partly drawn) [Example 171, {4-[3-(propan-2-yl)-[1,2,4]triazolo[4,3-a]pyridin-6-yl]phenyl}[trans-4-{[5-(pentafluoro-λ^6-sulfanyl)pyridin-2-yl]amino}cyclohexyl](imino)-λ^6-sulfanone] stands 100 nM; under `Cc1cc(-c2ccc(S(=O)(=O)[C@H]3CC[C@H](Nc4ccc(S(F)(F)(F)(F)F)cn4)CC3)cc2)cn2c(C(C)C)nnc12` [Example 181, 5-(pentafluoro-λ^6-sulfanyl)-N-[trans-4-{4-[8-methyl-3-(propan-2-yl)-[1,2,4]triazolo[4,3-a]pyridin-6-yl]benzenesulfonyl}cyclohexyl]pyridin-2-amine], 25.1 nM.
